The values below come from PubChem BioAssay AID330 (DTP/NCI, 2004).

“And” between values parts separate entries of the source, which are not always exact repeats. Equal values may be shown once. Inconclusive results and toxic doses are left out.

The subject of the test is P388 leukemia ip, CD2F1 mice, survival T/C. Kind of test: NCI In Vivo Anticancer Drug Screen. Data for tumor model P388 Leukemia (intraperitoneal) in CD2F1 (CDF1) mice. The settings on record: endpoint: median survival time, higher = longer survival. A digest of the protocol: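 Mice carrying the transplanted tumor received test compound or vehicle. Survival was recorded in each group, and the value is the treated-group measurement divided by that of the vehicle-treated control group.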

Setting [1] is: dose: 50.0 mg/kg/injection, schedule: Q01DX005 (ip), vehicle: Klucel (hydroxypropylcellulose) (HPC).
The mark [2] stands for this setting: dose: 100.0 mg/kg/injection, schedule: Q01DX005 (ip), vehicle: Klucel (hydroxypropylcellulose) (HPC).
Setting [3] is: dose: 200.0 mg/kg/injection, schedule: Q01DX005 (ip), vehicle: Klucel (hydroxypropylcellulose) (HPC).
Where [4] appears, read: dose: 12.5 mg/kg/injection, schedule: Q01DX005 (ip), vehicle: saline with Tween-80.
[5] abbreviates: dose: 25.0 mg/kg/injection, schedule: Q01DX005 (ip), vehicle: saline with Tween-80.
Setting [6] is: dose: 50.0 mg/kg/injection, schedule: Q01DX005 (ip), vehicle: saline with Tween-80.
[7] abbreviates: dose: 100.0 mg/kg/injection, schedule: Q01DX005 (ip), vehicle: saline with Tween-80.
Setting [8] is: dose: 60.0 mg/kg/injection, schedule: Q01DX005 (ip), vehicle: Klucel (hydroxypropylcellulose) (HPC).
Setting [9] is: dose: 120.0 mg/kg/injection, schedule: Q01DX005 (ip), vehicle: Klucel (hydroxypropylcellulose) (HPC).
Setting [10] is: dose: 240.0 mg/kg/injection, schedule: Q01DX005 (ip), vehicle: Klucel (hydroxypropylcellulose) (HPC).
Setting [11] is: dose: 200.0 mg/kg/injection, schedule: Q01DX005 (ip), vehicle: saline with Tween-80.
Where [12] appears, read: dose: 60.0 mg/kg/injection, schedule: Q01DX005 (ip), vehicle: saline with Tween-80.
Where [13] appears, read: dose: 120.0 mg/kg/injection, schedule: Q01DX005 (ip), vehicle: saline with Tween-80.
The mark [14] stands for this setting: dose: 240.0 mg/kg/injection, schedule: Q01DX005 (ip), vehicle: saline with Tween-80.

For the compound `O=C1C2(Cl)C(Cl)=C(Cl)C1(Cl)C1(Cl)C(Cl)=C(Cl)C(=O)C21Cl` (stereo not drawn), the T/C is 104 % of control (dose: 10.0 mg/kg/injection, schedule: Q01DX009 (ip), vehicle: saline with Tween-80); 104 % of control (dose: 20.0 mg/kg/injection, schedule: Q01DX009 (ip), vehicle: saline with Tween-80); 100 % of control (dose: 40.0 mg/kg/injection, schedule: Q01DX009 (ip), vehicle: saline with Tween-80).

In the case of `N=C(N)c1ccc2oc(/C=C/c3ccc(-c4cc5cc(C(=N)N)ccc5o4)cc3)cc2c1`, the T/C reads like this: under setting [1], 98 % of control; under setting [2], 104 % of control; under setting [3], 104 % of control.

For the compound `COc1ccc(N=Nc2ccc(N(CCCl)CCCl)cc2)cc1`, the T/C (dose: 25.0 mg/kg/injection, schedule: Q01DX001 (ip), vehicle: Klucel (hydroxypropylcellulose) (HPC)) was 106 % of control; the T/C (dose: 50.0 mg/kg/injection, schedule: Q01DX001 (ip), vehicle: Klucel (hydroxypropylcellulose) (HPC)) was 108 % of control; the T/C (dose: 100.0 mg/kg/injection, schedule: Q01DX001 (ip), vehicle: Klucel (hydroxypropylcellulose) (HPC)) is 110 % of control.

For `O=C1C=CC2OC(c3ccccc3)C(O)C2O1` (stereo not drawn), the T/C by setting is: (dose: 3.12 mg/kg/injection, schedule: Q01DX005 (ip), vehicle: DMSO) 98 % of control; (dose: 6.25 mg/kg/injection, schedule: Q01DX005 (ip), vehicle: DMSO) 107 % of control; (dose: 6.25 mg/kg/injection, schedule: Q01DX005 (ip), vehicle: saline with Tween-80) 110 % of control and 118 % of control (2×); (dose: 6.25 mg/kg/injection, schedule: Q01DX009 (ip), vehicle: distilled water + Tween-80 + alcohol) 98 % of control; (dose: 12.5 mg/kg/injection, schedule: Q01DX005 (ip), vehicle: DMSO) 116 % of control; under setting [4], 103 % of control (2×) and 117 % of control. Further, the T/C reads like this: (dose: 12.5 mg/kg/injection, schedule: Q01DX009 (ip), vehicle: distilled water + Tween-80 + alcohol) 109 % of control; (dose: 25.0 mg/kg/injection, schedule: Q01DX005 (ip), vehicle: DMSO) 122 % of control; under setting [5], 109 % of control (2×) and 118 % of control; (dose: 25.0 mg/kg/injection, schedule: Q01DX009 (ip), vehicle: distilled water + Tween-80 + alcohol) 118 % of control; (dose: 30.0 mg/kg/injection, schedule: Q01DX009 (ip), vehicle: DMSO) 113 % of control; under setting [6], 107 % of control.

For `CS(=O)(=O)CS(=O)(=O)OCCBr`, the T/C is 98 % of control under setting [4], 123 % of control under setting [5], 159 % of control under setting [6] and 226 % of control under setting [7].

Regarding `O=C(/C=C/c1ccccc1)[c-]1[c-][c-][c-][c-]1.[Fe].[c-]1[c-][c-][cH-][c-]1`, the T/C is, setting by setting: under setting [1], 96 % of control; under setting [2], 109 % of control; under setting [3], 100 % of control.

For the compound `O=c1[nH]c2cc(Cl)ccc2nc1/C=C(\O)c1ccccc1`, the T/C is 96 % of control under setting [8], 91 % of control under setting [9] and 92 % of control under setting [10].

With `CC(C)CSC(C)C`, the T/C is, setting by setting: (dose: 50.0 mg/kg/injection, schedule: Q04DX003 (ip), vehicle: saline with Tween-80) 100 % of control; (dose: 100.0 mg/kg/injection, schedule: Q04DX003 (ip), vehicle: saline with Tween-80) 104 % of control; (dose: 200.0 mg/kg/injection, schedule: Q04DX003 (ip), vehicle: saline with Tween-80) 100 % of control.

In the case of `COc1ccc(C(=O)Nc2ccccc2-c2ccccc2)cc1OC`, the T/C runs as follows: under setting [6], 105 % of control; under setting [7], 97 % of control; under setting [11], 103 % of control.

Turning to `C#Cc1cccc(N=Cc2cc(Cl)cc(C)c2O)c1`, the T/C was 88 % of control under setting [6], 91 % of control under setting [7] and 102 % of control under setting [11].

Regarding `CC(=O)Nc1ccc(/C=C/c2csnn2)cc1`, the T/C by setting is: under setting [12], 92 % of control; under setting [13], 87 % of control; under setting [14], 92 % of control.

For the compound `CCN(CC)C1=C(C)C(C(=O)OC)=C(C(=O)OC)C12c1ccccc1-c1ccccc12`, the T/C by setting is: under setting [8], 92 % of control; under setting [9], 92 % of control; under setting [10], 86 % of control.

Turning to `CCOc1ccc2c(c1)n([O-])c1cc(Cl)ccc1[n+]2=O`, the T/C by setting is: under setting [4], 111 % of control; under setting [5], 108 % of control; under setting [6], 103 % of control and 115 % of control; under setting [7], 107 % of control.

With `CCOC(=O)N1CCN(CCCCCCOc2ccc(C3CCCCC3)cc2)CC1`, the T/C runs as follows: (dose: 50.0 mg/kg/injection, schedule: Q01DX009 (ip), vehicle: saline with Tween-80) 106 % of control; (dose: 100.0 mg/kg/injection, schedule: Q01DX009 (ip), vehicle: saline with Tween-80) 118 % of control; (dose: 200.0 mg/kg/injection, schedule: Q01DX009 (ip), vehicle: saline with Tween-80) 123 % of control.

As for `CSc1ncc(Br)c(Sc2nccn2C)n1`, the T/C was 112 % of control under setting [12], 117 % of control under setting [13] and 114 % of control under setting [14].

For `Oc1c(Cl)cc(Cl)cc1C1Nc2ccccc2-n2cccc21` (stereo not drawn), the T/C is 91 % of control (dose: 6.25 mg/kg/injection, schedule: Q01DX009 (ip), vehicle: saline with Tween-80); 96 % of control (dose: 12.5 mg/kg/injection, schedule: Q01DX009 (ip), vehicle: saline with Tween-80); 91 % of control (dose: 25.0 mg/kg/injection, schedule: Q01DX009 (ip), vehicle: saline with Tween-80).

For the compound `CCOP(=O)(Nc1ccc(C)cc1C)OCC`, the T/C (dose: 50.0 mg/kg/injection, schedule: Q01DX009 (ip), vehicle: saline) is 100 % of control; the T/C (dose: 100.0 mg/kg/injection, schedule: Q01DX001 (ip), vehicle: saline) was 103 % of control; the T/C (dose: 100.0 mg/kg/injection, schedule: Q01DX009 (ip), vehicle: saline) is 104 % of control; the T/C (dose: 200.0 mg/kg/injection, schedule: Q01DX001 (ip), vehicle: saline) was 107 % of control; the T/C (dose: 200.0 mg/kg/injection, schedule: Q01DX009 (ip), vehicle: saline) is 99 % of control; the T/C (dose: 400.0 mg/kg/injection, schedule: Q01DX001 (ip), vehicle: saline) is 100 % of control.

Consider `COc1ccc2c(c1)[C@]13CCN(N=O)[C@H](C2)[C@@H]1CCC(=O)C3`, for which the T/C is 92 % of control (dose: 25.0 mg/kg/injection, schedule: Q01DX001 (ip), vehicle: saline with Tween-80); 108 % of control (dose: 50.0 mg/kg/injection, schedule: Q01DX001 (ip), vehicle: saline with Tween-80); 106 % of control and 92 % of control (dose: 100.0 mg/kg/injection, schedule: Q01DX001 (ip), vehicle: saline with Tween-80).

With `O=P(CCCCP(=O)(c1ccccc1)c1ccccc1)(c1ccccc1)c1ccccc1.[Cl][Sn]([Cl])([c]1ccccc1)[c]1ccccc1`, the T/C was 114 % of control (dose: 1.56 mg/kg/injection, schedule: Q01DX005 (ip), vehicle: Klucel (hydroxypropylcellulose) (HPC)); 114 % of control (dose: 3.12 mg/kg/injection, schedule: Q01DX005 (ip), vehicle: Klucel (hydroxypropylcellulose) (HPC)); 115 % of control (dose: 12.5 mg/kg/injection, schedule: Q01DX005 (ip), vehicle: Klucel (hydroxypropylcellulose) (HPC)).

In the case of `COC(=O)c1c(C(N)=O)c(C)n(NC(N)=O)c1C`, the T/C under setting [6] was 117 % of control, the T/C under setting [7] is 107 % of control and the T/C under setting [11] was 108 % of control.

For the compound `CCCCCCCCCCSCC(N)C(=O)O` (stereo not drawn), the T/C reads like this: (dose: 50.0 mg/kg/injection, schedule: Q01DX009 (ip), vehicle: other) 89 % of control; (dose: 100.0 mg/kg/injection, schedule: Q01DX009 (ip), vehicle: other) 88 % of control; (dose: 200.0 mg/kg/injection, schedule: Q01DX009 (ip), vehicle: other) 94 % of control; (dose: 400.0 mg/kg/injection, schedule: Q01DX009 (ip), vehicle: other) 99 % of control.
